Data from patent US20130053357A1, “SKIN IRRITATION SUPPRESSANT AND TRANSDERMAL PREPARATION” (HISAMITSU PHARMACEUTICAL CO., INC., priority 2010, published 2013).
Like-named read-outs stand apart in the source and are kept apart here.

Legend:
[1] = test system: shaved back of the rabbit; settings: in vivo
Protocol: <Examination of Reduction in Skin Irritation in a Rabbit by Cholesterol, −1>
A 19-week-old JW female rabbit was subjected to an experiment.
Subsequently, the transdermal preparation of each group was applied to a shaved back of the rabbit a single time for 24 hours. Erythema and swelling on the applied site were evaluated 1, 24 and 48 hours after peel-off of the transdermal preparation in accordance with the judgment standard of Draize et al. and an average value of the skin primary irritation index (PII) was calculated.

[2] = test system: croton oil-induced mouse ear swelling; assay: Suppression of croton oil-induced mouse ear swelling reaction (Experiment 3); assay type: in vivo
Description: <Suppression of Croton Oil-Induced Mouse Ear Swelling Reaction by the Test Substances>
Suppression of mouse ear swelling was examined through the use of croton oil (Wako Pure Chemical Industries, Ltd.) as a swelling inducer. A 7-week-old ddY female mouse (SPF) was subjected to an experiment. As test substances, cholesterol, glycyrrhizin, glycyrrhetinic acid, squalene, ergosterol, squalane and lanosterol were used. As a vehicle, acetone (Wako Pure Chemical Industries, Ltd.) was used.
Experiments were conducted by the following group composition. • Positive Control Group: A group which received only the vehicle as a primary test solution, and one hour after, received a 2% croton oil solution as a secondary test solution. • Test Substance Group: A group in which only the vehicle was administered as a primary test solution, and one hour after, a 2% croton oil solution including 1% by mass of test substance was administered as a secondary test solution.
An inhibition ratio of ear swelling was calculated as below. In this test, a […] inflammation model is used to examine immediate swelling reactions. In accordance with the group composition, 25 μL of the primary test solution was uniformly coated on back sides of both ears in an etherize mouse, and one hour after, 25 μL of the secondary test solution was uniformly coated in accordance with the group composition. Prior to coating of the secondary test solution, a thickness of auricle was measured by DIAL […] GAUGE (OZAKI MFG CO., LTD.). Furthermore, the secondary test solution was administered, and 6 hours after, the auricular thickness was measured in the same way as mentioned above, and an increased amount of the auricular thickness was set by deducting the thickness measured prior to administration of the secondary test solution. The inhibition ratio of ear swelling was calculated as below.
Inhibition ratio of ear swelling (%)=(increased amount of auricular thickness in Test Substance Group−increased amount of auricular thickness in Negative Control Group)/(increased amount of auricular thickness in Positive Control Group−increased amount of auricular thickness in Negative Control Group)×100

[3] = test system: human three-dimensional culture epidermal model (LabCyte EPI-MODEL); assay: Production of skin irritation mediators induced by PMA in human three-dimensional epidermal culture model (Experiment 1); assay type: cell-based; settings: for activity at 1 %: Homo sapiens, test substance 1 mass % with PMA in olive oil, 48 hours
Description: Changes in production amounts of skin irritation mediators by test substances were examined when cutaneous irritants were caused to act on a human three-dimensional culture epidermal model.
(§1) A human three-dimensional epidermal culture model obtained by multilayer-culturing a human normal epidermal cell (LabCyte EPI-MODEL, manufactured by Japan Tissue Engineering Co., Ltd.) was used. LabCyte is a cultured skin cultured in a transwell. For the experiment, LabCyte was used with the transwell.
As test substances, there were used cholesterol (manufactured by Wako Pure Chemical Industries, Ltd.), β-sitosterol (manufactured by TAMA BIOCHEMICAL CO., LTD.), α-spinasterol (manufactured by ChromaDex, Inc.), ergosterol (manufactured by Wako Pure Chemical Industries, Ltd.), campesterol (manufactured by TAMA BIOCHEMICAL CO., LTD.), glycyrrhizin (manufactured by Wako Pure Chemical Industries, Ltd.), glycyrrhetinic acid (manufactured by Wako Pure Chemical Industries, Ltd.), ginsenoside (manufactured by Wako Pure Chemical Industries, Ltd.), squalene (manufactured by Wako Pure Chemical Industries, Ltd.), squalane (manufactured by Tokyo Chemical Industry Co., Ltd.) and lanosterol (manufactured by ChromaDex, Inc.), which are candidates of a skin irritation suppressant.
As skin irritants, Phorbol 12-Myristate 13-Acetate (PMA, manufactured by Wako Pure Chemical Industries, Ltd.) was used. In addition, as vehicle, olive oil (manufactured by Wako Pure Chemical Industries, Ltd.) was used.
Experiments were conducted by the following group composition. • PMA Only Group: A group with addition of only 0.00001 mol of PMA dispersed in a vehicle, as a test solution. • Test Substance Group: A group with addition of 0.00001 mol of PMA and the test substance which were dispersed in a vehicle, as a test solution.
(§2) The experiment was conducted as below. First, LabCyte was put into a 24-well assay plate. Then, 1 ml of assay medium (Japan Tissue Engineering Co., Ltd.) was added so that it was brought into contact with a bottom surface of the cultured skin in each well of the 24-well assay plate, and was pre-cultured in an incubator with 5% of carbon dioxide concentration at 37° C. for 1 hour.
Next, a cell survival rate was measured by the MTT method after causing the test solutions of each group to act. Specifically, 50 μL of the test solution of each group was added to the surface of the LabCyte after preculture, was cultured in the incubator with 5% of carbon dioxide concentration at 37° C. for 48 hours, then was transferred to the assay medium comprising 0.5 mg/ml of MTT reagent, and was cultured in the incubator with 5% of carbon oxide level at 37° C. for 3 hours. Then, LabCyte was immersed in 0.3 ml of an isopropanol solution, and the produced blue-purple formazan was extracted for 2 hours. After extraction, an absorbance at 570 nm was measured by a 96 microplate reader. The cell survival rate was calculated as below.
Cell survival rate (%)=(absorbance of Test Substance Group)/(absorbance of PMA Only Group)×100
Subsequently, a production amount of the skin irritation mediator at a test substance concentration with 80% or more of cell survival rate was measured. As skin irritation mediators, PGE2, IL-1α, IL-6, IL-8 were measured.
(§3) The test solutions of each group were added to the cells, the culture solutions incubated for 48 hours were collected, and a production amount of each skin irritation mediator was measured. The skin irritation mediator was measured by using a commercially available ELISA kit (manufactured by R&D Systems, Inc.). A relative production amount of the skin irritation mediator in each test substance was calculated as below, when the production amount of the skin irritation mediator in the PMA Only Group was set to 100.
Relative production amount=(production amount of the mediator in Test Substance Group)/(production amount of the mediator in PMA Only Group)×100

[4] = test system: human three-dimensional culture epidermal model (LabCyte EPI-MODEL); assay: Suppression by cholesterol of skin irritation mediator production induced by asenapine and LADA in a human epidermal cell (Experiment 6); assay type: cell-based; settings: 1% by mass of cholesterol; summary of Tables 5 and 6
Protocol: as §1, §2, §3
Cholesterol was used as a test substance. Asenapine and lauric acid diethanolamide (LADA) were used as the cutaneous irritants.
Tests were conducted by the following group composition. • Solvent Group: A group including only vehicle. Olive oil was used as a vehicle. • Skin Irritant Only Group: A group with addition of only cutaneous irritant dispersed in a vehicle, as a test solution. The concentration of asenapine maleate to be added was 0.6% (asenapine group), and that of LADA was 0.03% (LADA group). • Skin Irritant Plus Cholesterol Group: A group with addition of the drug and 1% by mass of cholesterol which were dispersed in a vehicle, as a test solution.
The experiment was conducted while other conditions were set in the same manner as Experiment 1.

[5] = test system: human three-dimensional culture epidermal model (LabCyte EPI-MODEL); assay: Suppression by cholesterol of skin irritation mediator production induced by drugs in a human epidermal cell (Experiment 2); assay type: cell-based; settings: 1% by mass of cholesterol; summary of Table 2
Protocol: as §1, §2, §3
Cholesterol was used as a test substance. The drugs shown in Table 2 were used as the cutaneous irritants.
Tests were conducted by the following group composition. • Drug Only Group: A group with addition of only the drug dispersed in a vehicle, as a test solution. Concentrations of the drugs are shown in Table 2. • Drug Plus Cholesterol Group: A group with addition of the drug and 1% by mass of cholesterol which were dispersed in a vehicle, as a test solution.
The experiment was conducted while other conditions were set in the same manner as in Experiment 1.

For `CC(C)CCC[C@@H](C)[C@H]1CC[C@H]2[C@@H]3CC=C4C[C@@H](O)CC[C@]4(C)[C@H]3CC[C@]12C` [Cholesterol, cholesterol], which “Skin primary irritation index (PII), average value” [1] is on record?
Its value is “reduces skin irritation due to the drug”.

What about the “Inhibition Ratio Of Ear Swelling” value ([2]; ddY female mouse, 1% by mass of test substance in 2% croton oil solution, 25 μL on ears, auricular thickness 6 hours after) of the same compound?
The value was 70.6%.

And the “Effect on croton oil-induced mouse ear swelling reaction (in words)” value ([2]; summary of Table 3)?
Its value is “suppress croton oil-induced mouse ear swelling reaction”.

What about the activity at 1 % ([3]; read-out: Relative Production Amount of Skin Irritation Mediator when Production Amount in PMA Only Group is Set to 100: IL-1α) of the same compound?
The activity at 1 % was 50%.

And the activity at 1 % ([3]; read-out: Relative Production Amount of Skin Irritation Mediator when Production Amount in PMA Only Group is Set to 100: IL-6)?
The activity at 1 % was 0%.

What about the activity at 1 % ([3]; read-out: Relative Production Amount of Skin Irritation Mediator when Production Amount in PMA Only Group is Set to 100: IL-8) of the same compound?
Its activity at 1 % is 65%.

What about the activity at 1 % ([3]; read-out: Relative Production Amount of Skin Irritation Mediator when Production Amount in PMA Only Group is Set to 100: PGE2) of the same compound?
The activity at 1 % was 17%.

What about the “Effect on skin irritation mediator production by PMA (in words)” value ([3]; summary of Table 1) of the same compound?
Its value is “exhibited effects of suppressing the skin irritation mediator production by PMA”.

What about the “Effect of cholesterol on skin irritation mediator production due to asenapine and LADA (in words)” value [4] of the same compound?
Its value is “exhibited effects of suppressing the skin irritation mediator production on skin irritation due to asenapine and LADA”.

And the “Effect of cholesterol on drug-induced production of the skin irritation mediator (in words)” value [5]?
The value was “exhibited effects of suppressing of production of the skin irritation mediator on a wide range of drugs”.
